One block for each molecule: values may come before it.
Experiments:
[1] = biological target: Serine/threonine-protein kinase Nek7 (Homo sapiens) (UniProt Q8TDX7); test: Selectivity interaction (ActivX KiNativ screen (kinase selectivity in THP-1 cell lysates)) EUB0000639a NEK7; assay type: subcellular; conditions: lysate, at 5 µM
[2] = system: ALK tyrosine kinase receptor (Homo sapiens), Q9UM73 [C1156Y]; test: (§1) Selectivity interaction (ProQinase) EUB0000171b ALK
[3] = system: ALK tyrosine kinase receptor (Homo sapiens), Q9UM73 [F1174L]; test: as §1
ALK tyrosine kinase receptor (Homo sapiens), Q9UM73 [F1174L], sequence (Q9UM73 whole entry F1174L): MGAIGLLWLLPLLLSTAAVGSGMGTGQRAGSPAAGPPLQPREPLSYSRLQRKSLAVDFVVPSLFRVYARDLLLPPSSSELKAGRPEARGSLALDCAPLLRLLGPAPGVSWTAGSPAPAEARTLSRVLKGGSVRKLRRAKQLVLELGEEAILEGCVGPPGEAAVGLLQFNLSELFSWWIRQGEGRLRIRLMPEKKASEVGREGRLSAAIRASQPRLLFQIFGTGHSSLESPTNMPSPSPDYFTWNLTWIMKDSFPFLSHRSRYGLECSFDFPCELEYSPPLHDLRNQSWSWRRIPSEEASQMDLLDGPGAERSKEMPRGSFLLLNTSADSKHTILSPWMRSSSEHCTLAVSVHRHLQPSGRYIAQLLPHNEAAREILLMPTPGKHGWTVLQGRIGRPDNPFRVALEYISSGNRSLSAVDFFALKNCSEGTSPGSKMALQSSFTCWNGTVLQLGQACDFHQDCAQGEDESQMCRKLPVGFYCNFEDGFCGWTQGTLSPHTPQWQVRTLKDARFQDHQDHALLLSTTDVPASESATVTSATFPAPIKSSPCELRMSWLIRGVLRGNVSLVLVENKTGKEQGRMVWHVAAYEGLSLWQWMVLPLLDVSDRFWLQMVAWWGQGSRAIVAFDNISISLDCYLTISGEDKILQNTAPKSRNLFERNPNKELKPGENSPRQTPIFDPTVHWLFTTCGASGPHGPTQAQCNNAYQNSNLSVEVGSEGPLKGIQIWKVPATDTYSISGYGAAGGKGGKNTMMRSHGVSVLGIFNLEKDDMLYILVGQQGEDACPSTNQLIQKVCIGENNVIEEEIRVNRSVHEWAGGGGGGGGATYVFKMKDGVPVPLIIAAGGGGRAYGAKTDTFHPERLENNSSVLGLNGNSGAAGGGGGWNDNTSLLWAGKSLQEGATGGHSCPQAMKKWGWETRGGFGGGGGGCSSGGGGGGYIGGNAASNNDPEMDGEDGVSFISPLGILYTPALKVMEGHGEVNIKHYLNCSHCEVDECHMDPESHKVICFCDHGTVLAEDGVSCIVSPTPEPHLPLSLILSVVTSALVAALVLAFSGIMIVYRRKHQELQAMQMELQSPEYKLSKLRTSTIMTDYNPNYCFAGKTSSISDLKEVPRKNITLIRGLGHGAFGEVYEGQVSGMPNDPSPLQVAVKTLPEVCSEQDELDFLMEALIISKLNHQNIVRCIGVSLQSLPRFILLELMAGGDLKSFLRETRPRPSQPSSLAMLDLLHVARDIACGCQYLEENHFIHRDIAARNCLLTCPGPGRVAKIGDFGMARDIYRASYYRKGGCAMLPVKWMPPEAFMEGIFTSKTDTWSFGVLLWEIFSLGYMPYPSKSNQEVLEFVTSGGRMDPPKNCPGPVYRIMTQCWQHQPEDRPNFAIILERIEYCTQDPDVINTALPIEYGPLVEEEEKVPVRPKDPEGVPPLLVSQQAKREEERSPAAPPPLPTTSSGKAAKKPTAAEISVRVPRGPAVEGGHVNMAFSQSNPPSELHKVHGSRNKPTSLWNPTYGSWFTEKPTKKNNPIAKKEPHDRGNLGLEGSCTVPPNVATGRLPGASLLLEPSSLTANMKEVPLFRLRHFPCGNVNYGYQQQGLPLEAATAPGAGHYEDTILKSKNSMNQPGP

[4] = system: ALK tyrosine kinase receptor (Homo sapiens), Q9UM73 [F1174S]; test: as §1
ALK tyrosine kinase receptor (Homo sapiens), Q9UM73 [F1174S], sequence (Q9UM73 whole entry F1174S): as the sequence (Q9UM73 whole entry F1174L) above, with L1174S counted along it

[5] = biological target: ALK tyrosine kinase receptor (Homo sapiens, UniProt Q9UM73); test: as §1
ALK tyrosine kinase receptor, sequence (Q9UM73 19-1620 limits assumed): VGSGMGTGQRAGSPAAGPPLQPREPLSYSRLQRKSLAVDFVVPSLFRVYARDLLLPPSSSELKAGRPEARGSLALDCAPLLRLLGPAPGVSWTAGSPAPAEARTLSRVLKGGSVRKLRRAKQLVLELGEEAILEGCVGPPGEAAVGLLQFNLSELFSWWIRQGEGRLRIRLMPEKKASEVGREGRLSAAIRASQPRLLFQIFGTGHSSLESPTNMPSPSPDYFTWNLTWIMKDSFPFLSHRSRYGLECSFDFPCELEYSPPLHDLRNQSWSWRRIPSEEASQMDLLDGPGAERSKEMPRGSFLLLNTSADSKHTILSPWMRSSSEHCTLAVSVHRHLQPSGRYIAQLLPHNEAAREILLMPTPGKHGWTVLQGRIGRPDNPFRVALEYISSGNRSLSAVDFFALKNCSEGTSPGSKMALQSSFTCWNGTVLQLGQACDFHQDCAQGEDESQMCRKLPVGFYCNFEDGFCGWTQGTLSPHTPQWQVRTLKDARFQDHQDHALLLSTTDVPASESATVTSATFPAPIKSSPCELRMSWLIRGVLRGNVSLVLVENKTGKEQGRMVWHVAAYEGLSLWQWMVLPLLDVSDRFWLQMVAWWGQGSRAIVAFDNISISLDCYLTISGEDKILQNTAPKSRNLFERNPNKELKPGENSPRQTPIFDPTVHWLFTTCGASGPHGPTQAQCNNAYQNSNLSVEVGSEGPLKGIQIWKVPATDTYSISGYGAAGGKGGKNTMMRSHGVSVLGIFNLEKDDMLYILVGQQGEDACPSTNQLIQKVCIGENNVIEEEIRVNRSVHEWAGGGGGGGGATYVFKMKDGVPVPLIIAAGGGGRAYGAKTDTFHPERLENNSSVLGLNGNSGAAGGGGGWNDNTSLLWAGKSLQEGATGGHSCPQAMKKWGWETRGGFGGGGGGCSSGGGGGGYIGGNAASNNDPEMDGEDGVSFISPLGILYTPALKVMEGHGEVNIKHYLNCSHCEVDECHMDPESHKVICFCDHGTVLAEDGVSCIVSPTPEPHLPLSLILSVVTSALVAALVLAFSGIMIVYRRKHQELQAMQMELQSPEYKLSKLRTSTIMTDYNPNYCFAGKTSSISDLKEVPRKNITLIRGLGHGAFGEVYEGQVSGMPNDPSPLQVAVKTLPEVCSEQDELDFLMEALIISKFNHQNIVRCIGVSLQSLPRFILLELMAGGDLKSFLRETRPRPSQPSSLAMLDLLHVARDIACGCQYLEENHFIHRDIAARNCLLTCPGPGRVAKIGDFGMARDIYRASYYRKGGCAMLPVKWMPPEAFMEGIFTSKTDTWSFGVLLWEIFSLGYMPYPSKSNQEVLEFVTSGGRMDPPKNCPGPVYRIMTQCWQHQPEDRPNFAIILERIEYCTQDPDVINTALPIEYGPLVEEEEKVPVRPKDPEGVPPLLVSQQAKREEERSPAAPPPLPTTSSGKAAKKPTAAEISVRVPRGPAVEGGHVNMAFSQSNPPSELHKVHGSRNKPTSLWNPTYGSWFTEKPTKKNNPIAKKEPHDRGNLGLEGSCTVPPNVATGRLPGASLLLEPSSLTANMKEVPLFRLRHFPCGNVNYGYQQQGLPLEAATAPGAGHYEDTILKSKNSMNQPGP

[6] = biological target: T1, Casein kinase I isoform alpha-like (Homo sapiens) (UniProt Q8N752); conditions: at 10 µM
T1 sequence (whole entry): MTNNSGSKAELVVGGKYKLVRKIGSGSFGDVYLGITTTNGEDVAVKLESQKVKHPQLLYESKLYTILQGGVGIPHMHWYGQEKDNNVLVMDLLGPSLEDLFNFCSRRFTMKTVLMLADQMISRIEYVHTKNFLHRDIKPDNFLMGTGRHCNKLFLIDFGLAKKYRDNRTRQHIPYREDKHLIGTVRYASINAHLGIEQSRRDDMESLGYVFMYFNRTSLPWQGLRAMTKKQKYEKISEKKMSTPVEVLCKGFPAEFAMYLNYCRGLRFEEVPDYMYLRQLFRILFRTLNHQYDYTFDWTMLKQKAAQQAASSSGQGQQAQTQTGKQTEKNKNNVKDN

[7] = biological target: Activin receptor type-2A (Homo sapiens) (UniProt P27037); test: Selectivity interaction (KinomeScan (DiscoverX)) EUB0001049a ACVR2A; conditions: at 1 µM
Activin receptor type-2A (Homo sapiens), sequence (P27037 whole entry): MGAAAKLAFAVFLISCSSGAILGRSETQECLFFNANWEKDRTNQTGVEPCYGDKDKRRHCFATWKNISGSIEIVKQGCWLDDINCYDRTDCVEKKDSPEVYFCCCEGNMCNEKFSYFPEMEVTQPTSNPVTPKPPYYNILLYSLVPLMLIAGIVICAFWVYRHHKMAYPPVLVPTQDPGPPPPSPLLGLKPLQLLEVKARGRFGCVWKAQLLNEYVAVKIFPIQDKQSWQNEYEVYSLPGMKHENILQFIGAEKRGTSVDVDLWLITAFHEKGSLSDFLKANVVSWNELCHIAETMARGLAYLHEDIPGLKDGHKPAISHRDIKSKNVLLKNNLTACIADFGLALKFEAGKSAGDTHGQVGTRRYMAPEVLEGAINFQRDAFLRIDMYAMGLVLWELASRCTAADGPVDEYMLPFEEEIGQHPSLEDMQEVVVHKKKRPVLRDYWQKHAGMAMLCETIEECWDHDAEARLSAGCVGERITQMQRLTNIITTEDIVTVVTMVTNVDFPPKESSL

[8] = biological target: T2, Serine/threonine-protein kinase TBK1 (Homo sapiens) (UniProt Q9UHD2); test: Selectivity interaction (KinomeScan (DiscoverX)) EUB0001049a TBK1; conditions: at 1 µM
T2 sequence (whole entry): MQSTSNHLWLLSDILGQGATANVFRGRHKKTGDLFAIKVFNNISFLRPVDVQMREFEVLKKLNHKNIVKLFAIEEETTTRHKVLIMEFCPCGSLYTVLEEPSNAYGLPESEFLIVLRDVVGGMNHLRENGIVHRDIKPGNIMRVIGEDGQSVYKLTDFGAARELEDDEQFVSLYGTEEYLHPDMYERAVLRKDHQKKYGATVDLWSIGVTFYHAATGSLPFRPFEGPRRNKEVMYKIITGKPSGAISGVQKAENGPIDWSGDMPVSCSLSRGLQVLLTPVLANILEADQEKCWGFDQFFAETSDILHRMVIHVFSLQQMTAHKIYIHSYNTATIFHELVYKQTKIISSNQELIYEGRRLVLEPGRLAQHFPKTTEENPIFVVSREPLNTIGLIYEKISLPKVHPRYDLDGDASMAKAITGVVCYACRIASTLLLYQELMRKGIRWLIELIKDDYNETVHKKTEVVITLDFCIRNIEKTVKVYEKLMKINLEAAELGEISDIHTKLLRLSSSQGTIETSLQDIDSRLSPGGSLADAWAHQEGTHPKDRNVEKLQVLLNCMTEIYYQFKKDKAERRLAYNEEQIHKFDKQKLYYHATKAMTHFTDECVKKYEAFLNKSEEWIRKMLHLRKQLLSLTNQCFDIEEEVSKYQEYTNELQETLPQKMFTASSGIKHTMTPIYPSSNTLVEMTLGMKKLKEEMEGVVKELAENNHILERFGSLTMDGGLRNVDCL

[9] = biological target: T3, Aurora kinase A (Homo sapiens) (UniProt O14965); test: Selectivity interaction (KinomeScan (DiscoverX)) EUB0000045b STK6
T3 sequence (whole entry): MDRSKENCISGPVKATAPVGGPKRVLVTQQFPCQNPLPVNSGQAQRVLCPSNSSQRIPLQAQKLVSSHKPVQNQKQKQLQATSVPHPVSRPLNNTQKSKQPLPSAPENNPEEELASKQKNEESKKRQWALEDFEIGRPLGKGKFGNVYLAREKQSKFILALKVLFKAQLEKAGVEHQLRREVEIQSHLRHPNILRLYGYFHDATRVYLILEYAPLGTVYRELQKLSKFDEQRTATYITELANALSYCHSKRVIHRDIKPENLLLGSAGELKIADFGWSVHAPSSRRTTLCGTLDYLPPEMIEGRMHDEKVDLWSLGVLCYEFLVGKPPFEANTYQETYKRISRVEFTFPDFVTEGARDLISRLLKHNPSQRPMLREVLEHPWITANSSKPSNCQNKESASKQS

[10] = biological target: T4, Serine/threonine-protein kinase Nek2 (Homo sapiens) (UniProt P51955); conditions: at 10 µM
T4 sequence (whole entry): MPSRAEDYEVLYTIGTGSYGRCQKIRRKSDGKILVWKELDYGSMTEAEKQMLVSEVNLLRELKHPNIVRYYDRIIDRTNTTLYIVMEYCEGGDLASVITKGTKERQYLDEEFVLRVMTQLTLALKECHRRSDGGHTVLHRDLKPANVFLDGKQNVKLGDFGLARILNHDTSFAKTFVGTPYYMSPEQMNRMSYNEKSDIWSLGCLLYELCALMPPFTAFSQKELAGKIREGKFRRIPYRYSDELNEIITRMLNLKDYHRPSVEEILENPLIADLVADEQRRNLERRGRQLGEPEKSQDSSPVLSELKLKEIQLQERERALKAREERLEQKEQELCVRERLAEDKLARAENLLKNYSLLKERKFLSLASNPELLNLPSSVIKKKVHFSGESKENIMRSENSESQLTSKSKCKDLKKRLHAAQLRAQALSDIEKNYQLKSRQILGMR

[11] = biological target: Tyrosine-protein kinase HCK (Homo sapiens) (UniProt P08631); test: Selectivity interaction (KinomeScan (DiscoverX)) EUB0000618a HCK; conditions: at 10 µM
Tyrosine-protein kinase HCK (Homo sapiens), sequence (P08631 2-526 limits assumed): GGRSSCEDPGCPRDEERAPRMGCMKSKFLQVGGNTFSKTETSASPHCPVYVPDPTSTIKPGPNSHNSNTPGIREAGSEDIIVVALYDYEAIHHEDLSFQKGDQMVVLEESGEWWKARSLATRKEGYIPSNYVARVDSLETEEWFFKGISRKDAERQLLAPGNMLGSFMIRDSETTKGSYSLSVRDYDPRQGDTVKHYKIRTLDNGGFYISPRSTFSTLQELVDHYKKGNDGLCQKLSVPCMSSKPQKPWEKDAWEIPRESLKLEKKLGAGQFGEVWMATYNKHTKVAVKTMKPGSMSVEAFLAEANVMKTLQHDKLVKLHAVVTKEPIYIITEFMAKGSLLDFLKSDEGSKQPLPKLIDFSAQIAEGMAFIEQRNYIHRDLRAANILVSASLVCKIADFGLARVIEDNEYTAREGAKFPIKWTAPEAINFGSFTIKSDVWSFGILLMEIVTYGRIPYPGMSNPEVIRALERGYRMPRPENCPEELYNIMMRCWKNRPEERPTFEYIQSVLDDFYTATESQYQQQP

[12] = biological target: Dual specificity protein kinase CLK3 (Homo sapiens, UniProt P49761); test: Selectivity interaction (KinomeScan (DiscoverX)) EUB0001619a CLK3; conditions: at 1 µM
Dual specificity protein kinase CLK3, sequence (P49761 whole entry, looked up): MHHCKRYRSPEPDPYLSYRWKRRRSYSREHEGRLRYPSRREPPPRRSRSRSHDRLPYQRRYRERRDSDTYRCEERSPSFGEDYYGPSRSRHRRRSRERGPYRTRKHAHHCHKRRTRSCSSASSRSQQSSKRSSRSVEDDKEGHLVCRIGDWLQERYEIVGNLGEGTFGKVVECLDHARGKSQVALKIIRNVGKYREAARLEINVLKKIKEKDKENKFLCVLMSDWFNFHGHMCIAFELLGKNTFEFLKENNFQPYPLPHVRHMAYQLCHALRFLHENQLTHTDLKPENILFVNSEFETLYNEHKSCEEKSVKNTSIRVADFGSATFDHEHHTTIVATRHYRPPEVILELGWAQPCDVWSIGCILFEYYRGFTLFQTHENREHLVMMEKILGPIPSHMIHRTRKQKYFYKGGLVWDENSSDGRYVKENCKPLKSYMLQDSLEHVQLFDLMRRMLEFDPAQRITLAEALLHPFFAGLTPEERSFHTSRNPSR

Insulin receptor = Insulin receptor (Homo sapiens, UniProt P06213); test: Selectivity interaction (KinomeScan (DiscoverX)) EUB0001619a INSR; conditions: at 1 µM

ALK tyrosine kinase receptor (Homo sapiens), Q9UM73 [C1156Y], sequence (Q9UM73 whole entry C1156Y, looked up): as the sequence (Q9UM73 whole entry F1174L) above, with C1156Y, L1174F counted along it

% of inhibition [1]: -1.4%
Compound: CC[C@@H]1[C@H](F)C(=O)N[C@@H]1COc1nccc2cc(C(N)=O)c(OC)cc12 [ZIMLOVISERTIB]

% of control ([2]; at 1 µM): 86%
% of control ([2]; at 5 µM): 69%
% of control ([3]; at 1 µM): 84%
% of control ([3]; at 5 µM): 74%
% of control ([4]; at 1 µM): 92%
% of control ([4]; at 5 µM): 72%
% of control ([5]; at 1 µM): 98%
% of control ([5]; at 5 µM): 72%
Compound: C=CC(=O)Nc1cccc(C(=O)Nc2ccc(Nc3cc(-c4[nH]c(SC)nc4C)ccn3)cc2)c1

Compound: COCC(=O)NC/C=C/c1ccc2ncnc(Nc3ccc(Oc4ccc(C)nc4)c(C)c3)c2c1 [CP-724714]
% of control [6]: 82%

Compound: COc1cc(Nc2nc(C)cc(-c3cnn4nc(OC)ccc34)n2)cc(C(F)(F)F)c1
% of control [7]: 98%
% of control [8]: 80%

Compound: C=CC(=O)Nc1cc(-n2c(=O)ccc3cnc4ccc(-c5ccc(NS(C)(=O)=O)cc5)cc4c32)ccc1C
% of control ([9]; at 1 µM): 75%
% of control ([9]; at 10 µM): 100%

Compound: Cc1cc([C@@H](C)Nc2ccccc2C(=O)O)c2nc(N3CCOCC3)cc(=O)n2c1 [AZD-6482]
% of control [10]: 71%

Compound: O[C@H]1CC[C@H](Nc2ncc3nc(Nc4c(F)cc(F)cc4F)n([C@H]4CCOC4)c3n2)CC1
% of control [11]: 100%

Compound: N#Cc1cccc(-c2c[nH]c3ncnc(N4CCOCC4)c23)c1
% of control [12]: 78%
% of control (Insulin receptor): 100%

Reference: ChEMBL document CHEMBL5465560, “Selectivity Literature for EUbOPEN Chemogenomic Library” (2024)
